In data set [1] the test system is SOX binding site consensus DNA. Briefly: Direct DNA-binding assay (SPR), consensus DNA. To be noted: biotinylated double-strand DNA on streptavidin chip. On the procedure: (§1) Compounds were tested at a 1% v/v DMSO in HBS-EP buffer (10 mM HEPES, 150 mM NaCl, 3 mM EDTA, 0.005% v/v polysorbate 20, pH 7.4). The same buffer supplemented with 1% v/v DMSO was used as a mobile phase. DNA minor groove binder DAPI (4′,6-diamidino-2-phenylindole), DNA intercalator and minor groove binder actinomycin D, and DNA intercalator ethidium bromide were used as positive controls. Biotinylated (one tag per probe) double strand DNA probes were prepared using a standard annealing routine (5 min at 100° C., room temperature overnight and stored at −20° C.) of single strand anti-parallel DNA Probes purchased from Geneworks and were immobilized on CM5-SA streptavidin chips as per manufacturer's recommendations. […] All sample and control cycles were performed in triplicate. DMSO calibration was performed as per manufacturer's recommendations. After each injection, an extra flow system wash was performed with 50% v/v DMSO to avoid carryover. Experiments were run on a Biacore T200 (GE Healthcare, USA), with one flow cell kept as a reference.
(§2) From a molecular viewpoint, an inhibitor of SOX18-DNA binding could act either by interacting directly with the DNA, or the protein, or at the interface between protein and DNA. Binding of small molecules directly to the DNA, even though reported for other TFs (Leung et al., 2013), has the potential for unspecific DNA binding, leading to possible genotoxicity, mutagenicity, or carcinogenicity. For this reason, we developed a direct binding assays to determine whether the active compounds interact directly with DNA or protein. A surface plasmon resonance-based method was developed to analyse the binding of small molecules to biotinylated double stranded DNA immobilized on the surface of a streptavidin chip. The method measures the rate of binding (kon), dissociation (koff) and binding constant (KD), and was used to measure the binding to two different DNA sequences: SOX binding site consensus DNA, and scrambled DNA. Intercalating agents ethidium bromide and Actinomycin D, and the minor groove-binding agent 4′,6-diamino-2-phenylindole (DAPI) were used as positive controls for unselective DNA binding.

The test system of the next data set is scrambled DNA. Briefly: Direct DNA-binding assay (SPR), scrambled DNA. To be noted: biotinylated double-strand DNA on streptavidin chip. The procedure: as §1, §2
Another data set concerns HepG2. Briefly: Cytotoxicity assay (Alamar blue), HepG2. The format is cell-based. The settings on record: HepG2, 24 h. (Alamar Blue is a resazurin reagent that responds to reducing activity.)
The next data set addresses SOX18[109] HMG fragment (Mus musculus (Mouse), UniProt P43680). Briefly: FP DNA-binding competition assay, SOX18[109] HMG fragment. To be noted: for FP bound fraction (%) 50 μM / FP bound fraction (%) 200 μM: SOX18/DNA binding. The procedure: Mouse SOX HMG fragments. The HMG domains of mouse SOX2 (Group B), SOX11 (Group C), SOX6 (Group D), SOX9 (Group E), SOX18 (Group F) and SOX15 (Group G) were BP cloned from cDNA templates (IMAGE cDNA clone IDs: Sox18: 3967084; Sox9: 5354229; Sox4: 6822618) into a pDONRTM221 pENTRY vector, sequenced and recombined into a pETG20A or a pHisMBP expression plasmid using Gateway®LR Technology (Ng et al., 2012). Constructs were transformed into Escherichia coli BL21(DE3) cells (Luria-Bertani, 100 μg/ml Ampicillin).
The DNA-binding competition assay was performed in black 384-well plates, with mouse full length SOX18, or SOX-HMG fragments. All experiments were performed using a fluorescently-labelled Prox1-DNA element. Controls consisted of free labelled DNA (low FP milli-Polarization index, mP), labelled DNA in presence of protein (negative control, high mP), and labelled DNA and protein in presence of competing excess of unlabelled DNA (positive control, low mP)
The DNA-binding competition assay was performed in 25 uL, in black 384-well plates, using either 30 mM HEPES (N-2-Hydroxyethylpiperazine-N′-2-Ethanesulfonic Acid) (pH 7.5, with 100 mM KCl, 40 mM NaCl, 10 mM NH4OAc, […], 2 mM MgCl2, 0.5 mM EDTA, 0.01% NP-40) for mouse full length SOX18, or Tris-NaCl (10 mM Tris pH 8.0 and 100 mM NaCl) for SOX-HMG fragments. All experiments were performed using a 40 bp double-stranded Prox1-DNA element with 5′ fluorescein amidite (FAM) label (Sigma Proligo or InVitrogen). Optimum binding levels were obtained at 200 nM of mouse full length SOX18 and 60 nM of SOX-HMG fragment, in presence of 5 nM labelled DNA. Controls consisted of free labelled DNA (low FP milli-Polarization index, mP), labelled DNA in presence of protein (negative control, high mP), and labelled DNA and protein in presence of 400 time competing excess of unlabelled DNA (positive control, low mP). Depending on compound, final DMSO concentrations ranged from 2 to 3.33% v/v. After mixing protein, DNA probe and compound, plates were sealed and briskly agitated in the dark for 5 minutes at room temperature, 10 minutes at 37° C., and 30 minutes at room temperature, before reading fluorescence polarization on a Tecan M1000Pro (λexc=485 nm, λem=525 nm). All experiments were performed in triplicates.
In order to pinpoint the possible binding site of the small molecules, the FP assays were repeated with a shorter, DNA-binding centred protein fragment. The DNA binding domain of SOX TFs consists of the […] amino acid long High Mobility Group (HMG) box. The 109 amino-acid long SOX18 fragment (SOX18[109]) corresponds to residues 69-177 (numbering by mouse SOX18), which includes the HMG box (residues 78-149) and N- and C-terminal flanking sequences of 9 and 28 amino-acids, respectively.

For another data set, the system named is HEK293. As to the kind of experiment: Cytotoxicity assay (Alamar blue), HEK293. To be noted: HEK293, 24 h. The format is cell-based. The procedure: Cell toxicity was determined using Alamar blue, as previously described (McMillian et al., 2002). COS-7 cells were seeded as 7000 cells per well in black wall clear bottom 96-well plates in DMEM medium (Life Technologies Australia) with 10% FBS. HepG2 and HEK293 cell lines, from ATCC, were seeded as 5000 cells per well in black wall clear bottom 384-well cell culture plates in DMEM with 1% FBS. Cells were cultured for 24 h at 37° C., 5% CO2. A serial dilution of compounds was added, with a final DMSO concentration adjusted to 0.5% v/v. Cells were incubated for another 24 h. 1 Triton X-100 was used as negative control, and 0.5% DMSO as positive control. 5 μM Alamar blue was added to each well and fluorescence was measured (λexc=560 nm, λem=590 nm) after 2 h incubation at 37° C. Data were analysed using Prism software.

The next data set addresses SOX18-RBPJ interaction (Homo sapiens (Human), UniProt P35713). As to the kind of experiment: ALPHAScreen SOX18-RBPJ protein-protein interaction. It counts as binding. From the text: Proteins were genetically encoded with enhanced GFP (GFP), mCherry and cMyc (myc) tags, and cloned into cell free expression Gateway destination vectors: N-terminal GFP tagged (pCellFree_G03), N-terminal Cherry-cMyc (pCellFree_G07) and C-terminal Cherry-cMyc tagged (pCellFree_G08) (Gagoski et al., 2015). Human RBPJ (BC020780) and MEF2C (BC026341) Open Reading Frames (ORFs) were sourced from the Human ORFeome collection, version 1.1 and 5.1, and the Human Orfeome collaboration OCAA collection (Open Biosystems), as previously described (Sierecki et al., 2013) and cloned at the ARVEC facility, UQ Diamantina Institute. The entry clones pDONOR223 or pENTR201 vectors were exchanged with the ccdB gene in the expression plasmid by LR recombination (Life Technologies, Australia). The full-length human SOX18 gene was synthesized and the transfer to vectors was realized using Gateway PCR cloning. Translation competent Leishmania tarentolae extract (LTE) was prepared as previously described (Kovtun et al., 2011, Mureev et al., 2009). Protein pairs were co-expressed by adding 30 nM of GFP template plasmid and 60 nM of Cherry template plasmid to LTE and incubating for 3 hours at 27° C.
ALPHAScreen was performed as previously described (Sierecki et al., 2014, Sierecki et al., 2013). […] Percentage of interaction was calculated as: (I_cpd/I_DMSO)×100 from 3 independent experiments.
ALPHAScreen was performed as previously described (Sierecki et al., 2014, Sierecki et al., 2013), using the cMyc detection kit and Proxiplate-384 Plus plates (PerkinElmer). The LTE lysate co-expressing the proteins of interest was diluted in buffer A (25 mM HEPES, 50 mM NaCl). For the assay, 12.5 μL (0.4 μg) of Anti-cMyc coated Acceptor Beads in buffer B (25 mM HEPES, 50 mM NaCl, 0.001% NP40, 0.001% casein) were aliquoted into each well. This was followed by the addition of 2 μL of diluted sample, at different concentration, and 2 μL of biotin labeled GFP-Nanotrap in buffer A. The plates were incubated for 45 min at room temperature, then adding 2 μL (0.4 μg) of streptavidin-coated Donor Beads diluted in buffer A, and incubation in the dark for 45 min at room temperature. The ALPHAScreen signal was measured on an Envision Plate Reader (PerkinElmer), using manufacturer's recommended settings (λexc=680/30 nm for 0.18 s, λem=570/100 nm after 37 ms). The resulting bell-shaped curve is an indication of a positive interaction, while a flat line reflects a lack of interaction between the proteins. The measurement of each protein pair was repeated in triplicate.
I is the highest signal level (top of the hook effect curve) and Ineg is the lowest (background) signal level. The signals were normalized to the Iref signal obtained for the strongest interaction. […] Percentage of interaction was calculated as: […]
The ALPHA-Screen Assay was performed as previously described (Sierecki et al. 2014), using the cMyc detection kit and Proxiplate-384 Plus plates (PerkinElmer). A serial dilution of each sample was measured. The LTE lysate co-expressing the proteins of interest was diluted in buffer A (25 mM HEPES, 50 mM NaCl). For the assay, 12.5 μL (0.4 μg) of Anti-cMyc coated Acceptor Beads in buffer B (25 mM HEPES, 50 mM NaCl, 0.001% NP40, casein) were aliquoted into each well. This was followed by the addition of 2 μL of diluted sample and 2 μL of biotin labeled GFP-Nanotrap in buffer A. The plate was incubated for 45 min at RT. Afterward, 2 μL (0.4 μg) of Streptavidin coated Donor Beads diluted in buffer A, were added, followed by incubation in the dark for 45 min at RT. The ALPHA-Screen signal was obtained on an Envision Multilabel Plate Reader (PerkinElmer), using the manufacturer's recommended settings (excitation: 680/30 nm for 0.18 s, emission: 570/100 nm after 37 ms). The resulting bell-shaped curve is an indication of a positive interaction, while a flat line reflects a lack of interaction between the proteins. […]

Consider six molecules from patent US20240002326A1, “COMPOUNDS AND USE THEREOF IN METHODS OF TREATMENT” (The University of Queensland, priority 2016, published 2024).

“Also recorded” adds a separate entry of the source. *1 amine or outer side, *2 acyl side, *3 side chain or, on linkers, in order; H or OH if unused. Where a SMILES comes first, the peptide text is derived from it. Bridges are numbered along the chain shown (N, C = ends). Roman numbers before positions name the chains, in order. [ ]: non-standard residue; d: D form. Actinocin(9to1) = Cc1c2oc3c(C)ccc(C(=O)[*:1])c3nc-2c(C(=O)[*:2])c(N)c1=O; NMeV = CN[C@H](C(=O)O)C(C)C; Sar = CNCC(=O)O Bounds are passed on as bounds.

As a reminder, the CC50 is the concentration at which the toxic effect on the cells reaches its halfway point. The low end stands for greater toxicity to the cells, the high end for lower toxicity to the cells.

SOX18[109] HMG fragment, sequence (P43680 69-177): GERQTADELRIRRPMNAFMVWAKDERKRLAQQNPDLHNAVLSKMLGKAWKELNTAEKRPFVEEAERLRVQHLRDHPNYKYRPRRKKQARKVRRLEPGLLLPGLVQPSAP
SOX18-RBPJ interaction, sequence (P35713 whole entry): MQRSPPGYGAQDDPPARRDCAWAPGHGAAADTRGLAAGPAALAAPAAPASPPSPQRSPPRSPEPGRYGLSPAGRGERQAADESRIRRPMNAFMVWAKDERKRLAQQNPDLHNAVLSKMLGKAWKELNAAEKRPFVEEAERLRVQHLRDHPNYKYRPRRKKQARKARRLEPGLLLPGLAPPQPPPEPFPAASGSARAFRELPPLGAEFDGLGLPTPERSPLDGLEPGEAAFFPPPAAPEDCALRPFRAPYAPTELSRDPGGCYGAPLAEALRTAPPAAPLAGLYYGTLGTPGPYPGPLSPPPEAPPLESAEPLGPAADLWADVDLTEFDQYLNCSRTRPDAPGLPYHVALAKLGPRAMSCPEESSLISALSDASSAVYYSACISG

For `N=C(N)c1ccc(-c2cc3ccc(C(=N)N)cc3[nH]2)cc1` [DAPI, 4′,6-diamidino-2-phenylindole], in data set [1], the “binding to consensus DNA (SPR)” value was “bind to DNA”. In addition, the “binding to scrambled DNA (SPR)” value in the data set with scrambled DNA is “bind to DNA”.
As to `Cc1c2oc3c(C)ccc(C(=O)N[C@@H]4C(=O)N[C@H](C(C)C)C(=O)N5CCC[C@H]5C(=O)N(C)CC(=O)N(C)[C@@H](C(C)C)C(=O)O[C@@H]4C)c3nc-2c(C(=O)N[C@@H]2C(=O)N[C@H](C(C)C)C(=O)N3CCC[C@H]3C(=O)N(C)CC(=O)N(C)[C@@H](C(C)C)C(=O)O[C@@H]2C)c(N)c1=O` [actinomycin D] (I: T[dV]P[Sar][NMeV] / II: T[dV]P[Sar][NMeV]; ester I:1-I:C, II:1-II:C; linker I:N-II:N via Actinocin(9to1)), in data set [1], the “binding to consensus DNA (SPR)” value is “bind to DNA”. In the data set with scrambled DNA, the “binding to scrambled DNA (SPR)” value is “bind to DNA”.
The molecule `O=C(O)c1c(O)cccc1C=Cc1ccc2ccccc2c1` (mixture of isomers) [Sm20, (E/Z)-2-hydroxy-6-(2(naphthalen-2-yl)vinyl)benzoic acid] returned a CC50 with HepG2 of 71.3 µM. Besides, on SOX18[109] HMG fragment, the “FP bound fraction (%) 50 μM” value is listed as 10.3 ± 4.1% and the “FP bound fraction (%) 200 μM” value stood at 11.9 ± 8.5%. Further, at SOX18[109] HMG fragment (SAR library, SOX18[109]), the “SOX18-DNA binding inhibition (FP, words)” value was “displayed SOX18-DNA binding inhibiting activity; also recorded: inhibit both DNA and PPI”. The molecule also yielded a CC50 in the data set with HEK293 of 97.1 µM. In addition, the “effect on SOX18-RBPJ interaction (PPI)” value on SOX18-RBPJ interaction (ALPHAScreen) was “inhibit both DNA and PPI”.
In the data set on HepG2, `COc1cccc(C=Cc2ccc3ccccc3c2)c1C(=O)O` (mixture of isomers) [Sm19, (E/Z)-2-methoxy-6-(2-(naphthalen-2-yl)vinyl)benzoic acid] gave a CC50 greater than 100 µM. On SOX18[109] HMG fragment, the “FP bound fraction (%) 50 μM” value was found to be 99.2 ± 6.8% and the “FP bound fraction (%) 200 μM” value was found to be 107.6 ± 4.5%. Also, the CC50 in the data set on HEK293 was greater than 100 µM. Moreover, the “SOX18-RBPJ protein-protein binding inhibition at 5 μM” value at SOX18-RBPJ interaction (5 μM) was “highly active”.
For the molecule “N,N-diethyl-2-methoxy-6-(2-(naphthalene-2-yl)vinyl)benzamide [Sm17]”, in the data set on HepG2, the CC50 turned out to be 38.5 µM. Moreover, at SOX18[109] HMG fragment, the “FP bound fraction (%) 50 μM” value is 100.3 ± 6.0% and the “FP bound fraction (%) 200 μM” value was 117.0 ± 10.9%. The CC50 with HEK293 came out at 62.6 µM.
For `CC[n+]1c(-c2ccccc2)c2cc(N)ccc2c2ccc(N)cc21` [ethidium bromide], the “binding to consensus DNA (SPR)” value in data set [1] is “bind to DNA”. Besides, the “binding to scrambled DNA (SPR)” value in the data set with scrambled DNA was “bind to DNA”.
